From patent US8198266B2, “Use of an EGFR antagonist for the treatment of glomerolonephritis” (INSERM (Institut National de la Sante et de la Recherche …, priority 2006, dated 2012) come the findings set out here.

Assay [1] concerns anti-GBM nephrotoxic serum-induced crescentic glomerulonephritis (RPGN) in mice. As to the kind of experiment: Assessment of ascitis, renal function and albuminuria in accelerated anti-GBM crescentic glomerulonephritis. Type of assay: in vivo, mouse. Here is the method: Assessment of […], renal function and albuminuria: […] Stage 2 to 4 were associated with clinically evident […] weight gain before sacrifice. Serum and urinary creatinine, and blood urea nitrogen (BUN) were quantified spectrophotometrically using a colorimetric method. Urinary albumin excretion was measured using a specific ELISA assay for quantitative determination of albumin inmouse urine (CellTrend GmbH).

The test system is the same in assay [2]. Put plainly: Survival in accelerated anti-GBM crescentic glomerulonephritis. Particulars: AG1478-treated HB-EGF(+/+) mice.
Experimental: Briefly, WT and HB-EGF−/− mice received subcutaneous injection with 200 μg normal sheep IgG (100 μl in each flank of normal sheep IgG (Sigma) diluted to 1 mg/ml in a solution of 50% freund complete adjuvent and 50% saline). Six days later (day 1), glomerulonephritis (GN) was induced by intravenous injection of 50 μl sheep anti-glomerular basement membrane (GBM) serum diluted to 7 mg/ml in saline. Serum injection was repeated twice (days 2 and 3), with serum dilution increased to 70 mg/ml. On days 0, 1, 2, 3, 5 and 7, mice received intraperitoneal injection of either AG1478 (LC Laboratories), a pharmacological inhibitor of EGFR tyrosine kinase activity (30 mg.kg-1.day-1 in 100 μl of a saline solution with 1% carboxymethylcellulose (CMC) and 10% DMSO), or 100 μl of saline solution with 1% CMC and 10% DMSO as control. On day 8, mice were sacrified after body weight measurement and 12 hours urines collection with metabolic cages. […] On day 14, mice were sacrified. Blood was obtained from mice by aortic catheterization. Kidneys from each mouse were processed for immunohistochemistry, protein and mRNA analysis, and the remaining half-kidney fixed in 10% neutral-buffered formalin for histological study.
A further assay has as its target T1, EGFR (Mus musculus, UniProt Q01279).
T1 construct: Proteins were extracted from kidneys using a lysis buffer; from tissue; host or cells: mouse kidney (renal cortex, glomeruli); wild type and HB-EGF-/- mice on mixed C57BL/6J x 129 background
Put plainly: Phosphorylation of EGFR in renal cortex/glomeruli (western blot, immunofluorescence) during experimental RPGN. Type of assay: in vivo. Here is the method:
On day 14, mice were sacrified.
For immunofluorescence in mouse tissues, cryostat sections of 4 μm were immediately fixed in acetone, washed in PBS and then incubated with antibodies in a humid incubator. Deposits of mouse IgG in kidney were evaluated using FITC rat anti-mouse IgG (FI2000, Vector) (1:100 dilution, incubation for 1 hour at room temperature).
Western blot analysis: Proteins were extracted from kidneys using a lysis buffer (Phosphosafe extraction buffer, Novagen) and quantified according to Bradford's method. […] Immunoblotting was performed using the rabbit anti phospho-EGFR (Cell Signaling) diluted 1:1,000 or a rabbit anti-EGFR diluted 1:5,000 (Cell Signaling) as control for lane loading. Then, horseradish peroxidase-linked donkey secondary antibody (Amersham Pharmacia Biotech) diluted 1:2,000 was added and revelation was subsequently made using ECL plus kit (Amersham Pharmacia Biotech) on autoradiography film, followed by densitometric analysis.
For orientation: Immunoblotting shows a protein as a band on a membrane.

Assay [3] relates to anti-GBM nephrotoxic serum-induced crescentic glomerulonephritis (RPGN) in mice. Put plainly: Histopathology and immunohistochemistry (crescentic glomeruli, CD3 positive cells) in accelerated anti-GBM crescentic glomerulonephritis. Type of assay: in vivo, mouse.
The mark [4] stands for this setting: day 8, AG1478 30 mg/kg i.p., wild type mice, 30 mg/kg.
Where [5] appears, read: day 14, erlotinib preventive (d0-14) or curative (d4-14) protocol.

Entries after “also recorded” stand apart in the source; their conditions may differ.

T1 sequence (Q01279 25-1210): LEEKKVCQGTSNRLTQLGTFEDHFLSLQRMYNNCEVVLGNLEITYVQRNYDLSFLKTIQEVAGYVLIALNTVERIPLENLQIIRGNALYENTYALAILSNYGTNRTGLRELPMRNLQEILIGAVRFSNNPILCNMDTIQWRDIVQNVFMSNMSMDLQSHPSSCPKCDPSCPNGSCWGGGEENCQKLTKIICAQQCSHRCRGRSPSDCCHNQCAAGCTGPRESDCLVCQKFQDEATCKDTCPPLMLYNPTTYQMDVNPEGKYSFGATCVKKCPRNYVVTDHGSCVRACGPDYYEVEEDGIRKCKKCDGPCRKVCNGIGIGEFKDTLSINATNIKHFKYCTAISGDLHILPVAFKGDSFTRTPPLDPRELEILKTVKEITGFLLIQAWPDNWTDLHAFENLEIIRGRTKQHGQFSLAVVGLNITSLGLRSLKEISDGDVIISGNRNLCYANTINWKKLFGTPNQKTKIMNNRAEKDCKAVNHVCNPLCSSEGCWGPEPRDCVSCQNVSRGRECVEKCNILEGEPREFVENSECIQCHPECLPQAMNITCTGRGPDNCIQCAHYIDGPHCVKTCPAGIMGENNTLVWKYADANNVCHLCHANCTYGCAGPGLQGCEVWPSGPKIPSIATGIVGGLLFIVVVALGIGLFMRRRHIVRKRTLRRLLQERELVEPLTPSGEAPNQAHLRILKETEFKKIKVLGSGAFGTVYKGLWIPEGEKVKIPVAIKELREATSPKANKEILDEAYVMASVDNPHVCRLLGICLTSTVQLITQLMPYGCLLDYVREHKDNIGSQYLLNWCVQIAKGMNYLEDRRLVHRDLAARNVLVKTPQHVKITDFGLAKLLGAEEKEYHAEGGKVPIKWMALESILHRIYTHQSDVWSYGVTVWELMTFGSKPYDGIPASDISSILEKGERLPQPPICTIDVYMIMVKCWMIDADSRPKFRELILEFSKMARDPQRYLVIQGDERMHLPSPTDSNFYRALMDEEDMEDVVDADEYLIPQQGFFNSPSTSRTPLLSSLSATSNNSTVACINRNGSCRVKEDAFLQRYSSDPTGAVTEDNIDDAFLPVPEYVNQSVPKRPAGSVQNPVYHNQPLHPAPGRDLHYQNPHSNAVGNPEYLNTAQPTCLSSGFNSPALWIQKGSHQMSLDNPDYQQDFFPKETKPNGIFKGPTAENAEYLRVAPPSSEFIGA

On to `COc1cc2ncnc(Nc3cccc(Cl)c3)c2cc1OC` [AG1478, 4-(3-Chloroanilino)-6,7-dimethoxyquinazoline], for which, in assay [1] (day 8, AG1478 30 mg/kg i.p., vs vehicle), the “incidence and severity of asciitis” value was “lower incidence and severity of asciitis”. Besides, the “albumin urinary leakage, renal function / renal failure (in words)” value in assay [1] (day 8, AG1478 30 mg/kg i.p., 30 mg/kg) is “prevents albumin urinary leakage and renal failure; also recorded: renal function was preserved”. The molecule also yielded an albuminuria in assay [1] (day 8, AG1478 30 mg/kg/day i.p., n=6) of 8.9±2.3 g/mmol creatinine. In assay [1] (day 8, AG1478 30 mg/kg/day i.p., n=6, in mM), this molecule came in with a BUN of 6.39±2.0. The “death within 8 days of RPGN” value in assay [2] is listed as “no AG1478-treated HB-EGF(+/+) mice died”. For the same molecule, the “phosphorylation of EGFR (in words)” value on EGFR (AG1478 i.p. in wild type mice vs vehicle only, day 8) is recorded as “prevented the phosphorylation of EGFR”. The “pEGFR signal in glomeruli (immunofluorescence)” value on EGFR (day 8 post NTS, AG1478 30 mg/kg/day i.p.) is “faint or no signal was detectable”. For the same molecule, the “phosphorylation of EGFR blunted (fold)” value on EGFR (renal cortex, day 8 post NTS, AG1478 30 mg/kg/day i.p. vs vehicle) was about 9 fold. Further, the pEFGR/EGFR ratio at EGFR (renal cortex, western blot, day 8 post NTS, AG1478 30 mg/kg/day i.p., wild type mice, n=6) is 11 % of vehicle only-treated mice. In assay [3] (setting [4]), the “crescent formation / renal lesions (in words)” value is “reduces crescent formation; also recorded: dramatically reduced the development of renal lesions”; the “periglomerular and interstitial CD3+ cell infiltrates” value is “reduces crescent formation and T cells infiltrates; also recorded: absent; also recorded: more effective in preventing cell infiltrate than HB-EGF deficiency”. Also, in assay [3] (day 8 after induction of RPGN, AG1478 30 mg/kg/day i.p., n=6), the “% of crescentic glomeruli” value came to 6.8±1.7%.
As to `C#Cc1cccc(Nc2ncnc3cc(OCCOC)c(OCCOC)cc23)c1.Cl` [erlotinib, [6,7-bis(2-methoxyethoxy)-4-quinazolin-4-yl]-(3-ethynylphenyl)amine], in assay [1] (day 14, erlotinib 100 mg/kg/day per gavage, preventive, n=9), the blood urea nitrogen was 3.8 ± 0.4 mmol/L. The “renal failure / blood urea nitrogen levels (in words)” value in assay [1] (setting [5]) is “prevented renal failure with normal blood urea nitrogen levels”. In addition, the “necrotic glomerular lesions, cellular crescents, tubular proteinaceous casts and diffuse CD3 positive cells infiltrates” value in assay [3] (day 14, delayed erlotinib from day 4 to day 14, Masson trichrome staining) was “blunted”. In addition, in assay [3] (day 14, erlotinib 100 mg/kg/day per gavage, preventive (12 hours prior to anti-GBM serum), n=9), the “proportion of crescentic glomeruli” value is given as 25.0±6.9 ° A). Besides, the “development of glomerular injury (in words)” value in assay [3] (setting [5]) is listed as “blunted or stopped the development of glomerular injury”.
